From patent publication US9522124B2, “Methods for treating Alzheimer's disease” (Wisconsin Alumni Research Foundation, priority 2011, dated 2016)
pIC50: −log10 of the molar value.

Key:
ATase1 and ATase2 = assay: Western blot assessment of endogenous ATase1/ATase2 levels in H4 cells; assay type: cell-based, human; conditions: 48 hours
Protocol: FIG. 4. Compound 9 causes degradation of the ATases. (A) H4 cells were treated with the indicated compounds (10 μM) for 48 hours prior to Western blot assessment of BACE1 and ATase1/ATase2 levels in total cell lysates. (B, D and E) Quantification of changes are expressed as percent of control (no treatment) and are the average (n=3)±S.D.*, P<0.05; **, P<0.005; ^#, P<0.0005. (C) ELISA determination of secreted Aβ in the conditioned media of the experiment described in (A). Results are expressed as percent of control (no treatment) and are the average (n=3)±S.D.*, P<0.05; **, P<0.005. (F) CHO cells over-expressing either ATase1 or ATase2 were treated with compound 9 (10 μM) for 48 hours prior to Western blot assessment of ATase1 and ATase2 levels in total cell lysates.
FIG. 13. Compound 9 decreases the levels of both ATase1 and ATase2. (A) H4 cells were treated with the increasing concentrations of compound 9 for 48 hours prior to Western blot assessment of BACE1 and ATase1/ATase2 levels in total cell lysates. (B-D) Quantification of changes are expressed as percent of control (no treatment) and are the average (n=3)±S.D.*, P<0.05; **, P<0.005; ^#, P<0.0005.
Western blotting was performed on a 4-12% Bis-Tris SDS-PAGE system (NuPAGE; Invitrogen, Carlsbad, Calif., USA) as described previously (Costantini et al., 2006; Jonas et al., 2008; Jonas et al., 2010; Ko and Puglielli, 2007; Ko and Puglielli, 2009; Pehar et al., 2010). The following antibodies were used in this study: anti-acetylated lysine (monoclonal; cat. no. ab409; Abcam, Cambridge, Mass., USA); anti-BACE1 (polyclonal; cat. no. ab2077; Abcam); anti-Myc (monoclonal; cat. no. sc-40; santa cruz, Santa Cruz, Calif., USA); anti-ATases/NAT8 (polyclonal; cat. no. AP4957c; Abgent, San Diego, Calif., USA); anti-actin (monoclonal; cat. no. A1978; Sigma, St Louis, Mo., USA); anti-C99 (monoclonal; cat. no. M066-3; MBL, Woburn, Mass., USA); anti-acetylated H3 (polyclonal; cat. no. 06-599, Millipore, Billerica, Mass.); anti-acetylated H4 (polyclonal; cat. no. 06-866, Millipore, Billerica, Mass.); anti-αPCNA (polyclonal; cat. no. […]

ATase1 = biological target: T1, ATase1 (Homo sapiens, UniProt Q9UHF3); assay: AcetylCoA:lysine acetyltransferase assay (fluorescent, affinity purified ATase1-myc); assay type: biochemical
T1 construct: myc (C); made in house
T1 sequence (Q9UHF3 1-227): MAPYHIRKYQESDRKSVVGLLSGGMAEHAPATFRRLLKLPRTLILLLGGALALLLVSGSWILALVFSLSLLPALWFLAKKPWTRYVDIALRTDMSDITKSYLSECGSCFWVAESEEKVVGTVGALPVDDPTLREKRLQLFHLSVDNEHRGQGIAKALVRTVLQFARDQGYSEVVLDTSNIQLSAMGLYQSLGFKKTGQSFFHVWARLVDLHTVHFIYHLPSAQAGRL
Protocol: The acetyl:CoA lysine acetyltransferase activity of ATase1 and ATase2 was assayed as described before (Ko and Puglielli, 2009). Briefly, we adapted a commercially available fluorescent kit (cat. no. 10006515, Cayman Chemicals) as follows: as source of the enzymatic activity, we used affinity purified ATase1-myc and ATase2-myc at the final concentration of 300 ng/μl; as donor of the acetyl group, we used acetyl-CoA at the final concentration of 12.5 μM. […] The acetyltransferase assay was performed as recommended by the manufacturer.
For kinetic analysis of ATase1 and ATase2 inhibition, the assays were performed in the presence of the indicated concentrations of compound 9, 19 and 9.I. The concentration of acetyl-CoA was varied from […]. Values were plotted as a Lineweaver-Burk plot using Graphpad Prism software.
We previously described a fluorescent assay that is able to assess the acetylCoA:lysine acetyltransferase activity of ATase1 and ATase2 in vitro (Ko and Puglielli, 2009). The assay employs affinity purified ATase1 or ATase2 (as enzymes), acetyl-CoA (as donor of the acetyl group) and a recombinant peptide corresponding to the N-terminal tail of the histone protein H3 (as acceptor of the acetyl group). The H3 peptide was preferred to affinity purified BACE1 because it is acetylated in a conformation independent manner ((Ko and Puglielli, 2009) and data not shown) and, therefore, more suitable for large screening approaches. To identify possible ATase1 and ATase2 inhibitors we used the assay to screen a single library of 14,400 small molecules/compounds. The screen identified 186 small molecules/compounds able to inhibit ATase1, ATase2 or both in vitro. […] Each compound was then screened for cytotoxic properties by using multi-plex cytotoxicity assays on a variety of cell lines, including human neuroblastoma and human neuroglioma. […] The above 30 compounds were individually screened on human neuroglioma (H4) cells for their ability to reduce the levels of BACE1 and the generation of Aβ. Two compounds, 9 and 19, produced significant changes and were object of further study.

C99 = assay: Western blot assessment of C99 levels in H4 cell lysates; assay type: cell-based, human; conditions: H4 cells, 48 hours
Protocol: FIG. 7. Compound 9 and 19 decrease levels and activity of BACE1. H4 cells were treated with either compound 9 or 19 for 48 hours prior to Western blot assessment of BACE1 and C99 levels in cell lysates. C99 is the immediate product of BACE1-mediated cleavage of APP.
Western blotting was performed on a 4-12% Bis-Tris SDS-PAGE system (NuPAGE; Invitrogen, Carlsbad, Calif., USA) as described previously (Costantini et al., 2006; Jonas et al., 2008; Jonas et al., 2010; Ko and Puglielli, 2007; Ko and Puglielli, 2009; Pehar et al., 2010). The following antibodies were used in this study: anti-acetylated lysine (monoclonal; cat. no. ab409; Abcam, Cambridge, Mass., USA); anti-BACE1 (polyclonal; cat. no. ab2077; Abcam); anti-Myc (monoclonal; cat. no. sc-40; santa cruz, Santa Cruz, Calif., USA); anti-ATases/NAT8 (polyclonal; cat. no. AP4957c; Abgent, San Diego, Calif., USA); anti-actin (monoclonal; cat. no. A1978; Sigma, St Louis, Mo., USA); anti-C99 (monoclonal; cat. no. M066-3; MBL, Woburn, Mass., USA); anti-acetylated H3 (polyclonal; cat. no. 06-599, Millipore, Billerica, Mass.); anti-acetylated H4 (polyclonal; cat. no. 06-866, Millipore, Billerica, Mass.); anti-αPCNA (polyclonal; cat. no. AP2835b, Abgent, San Diego, Calif., USA).

Aβ = Aβ levels in brain homogenates (cortex) of APP695/swe mice; assay type: in vivo, mouse
Protocol: A group of non-transgenic and APP695/swe mice were fed a diet containing 50 mg/kg/day of compound 9. Treatment started at weaning (˜6 weeks of age) and lasted 4 months. At the end of treatment, the animals were sacrificed and the electrophysiological properties of hippocampal brain slices (as induced by theta burst stimulation to the Schaffer collaterals) were studied.
Note that at this age, the animals have not yet developed plaques. As expected from our previous results in cellular models (Ko and Puglielli, 2009), no effect on the Aβ42/Aβtotal ratio was observed (data not shown). In fact compound 9 affects BACE1 levels and, as such, impacts on the generation of all Aβ species.

SMILES: O=c1c(Cl)c2oc3ccccc3nc-2c2ccccc12 [Compound 9]
- endogenous levels of ATase1 and ATase2 (ATase1 and ATase2; 10 μM): significantly down-regulate
- levels of the ATases with increasing concentrations (ATase1 and ATase2; increasing concentrations): dose-dependent decrease
- pIC50 (ATase1): ~5.41
- kinetics of inhibition for acetyl-CoA, ATase1 (ATase1; Lineweaver-Burk plot, acetyl-CoA varied): competitive inhibition
- cellular levels of C99 (C99): decreased cellular levels of C99
- reduction in soluble Aβ in the brain homogenates (Aβ; 50 mg/kg/day in diet, 4 months): ~50%
- Aβ (Aβ; brain homogenates (cortex), 50 mg/kg/day in diet, 4 months): 178 ± 14 ng/gr
- Aβ42/Aβtotal ratio (Aβ; data not shown): no effect
